Results: PMC11676667, “Pharmacokinetics of Oral Cannabinoid Δ8-Tetrahydrocannabivarin and Its Main Metabolites in Healthy Participants” (Pharmaceuticals, 2024)
Like-named read-outs stand apart in the source and are kept apart here.

Assays:
[1] = Plasma pharmacokinetics after single oral dose of Δ8-THCV in MCT oil (LC-MS/MS, non-compartmental analysis); format: in vivo, human; design: Clast (last quantifiable concentration): unit not given here; conditions: for plasma concentration: Predose; for concentration at 0.5 h / concentration at 1 h / concentration at 2 h / concentration at 4 h / concentration at 6 h / concentration at 8 h / AUC(0-t) / Cmax / MRT / Tmax: human; for concentration at 0.5 h / concentration at 1 h / concentration at 2 h / concentration at 4 h / concentration at 6 h / concentration at 8 h: oral; for AUC(0-t) / Cmax / MRT / Tmax: po; for MRT: read-out: MRT (mean residence time)
Summary of the method: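 Healthy participants received single oral Δ8-THCV in MCT oil (50 mg/mL; 12.5-200 mg, or placebo) after a high-fat, high-calorie breakfast, with ≥1-week washout. Plasma (K2EDTA) sampled predose and 0.5-8 h post-dose, assayed by validated LC-MS/MS including metabolites; PK by non-compartmental analysis, sub-LLOQ values set to 0.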

[2] = system: CB2 receptors; design: method as in PMID 21470208; conditions: in vitro; cited from earlier work
[3] = 12.5 mg single oral Δ8-THCV in MCT oil, plasma, Mean (±SD)
[4] = 12.5 mg single oral Δ8-THCV in MCT oil, plasma, Median (Range)
[5] = 25 mg single oral Δ8-THCV in MCT oil, plasma, Mean (±SD)
[6] = 25 mg single oral Δ8-THCV in MCT oil, plasma, Median (Range)
[7] = 50 mg single oral Δ8-THCV in MCT oil, plasma, Mean (±SD)
[8] = 50 mg single oral Δ8-THCV in MCT oil, plasma, Median (Range)
[9] = 100 mg single oral Δ8-THCV in MCT oil, plasma, Mean (±SD)
[10] = 100 mg single oral Δ8-THCV in MCT oil, plasma, Median (Range)
[11] = 200 mg single oral Δ8-THCV in MCT oil, plasma, Mean (±SD)
[12] = 200 mg single oral Δ8-THCV in MCT oil, plasma, Median (Range)
[13] = plasma, 12.5 mg, 12.5 mg Δ8-THCV dose, Mean (SD, %CV)
[14] = plasma, 12.5 mg, 12.5 mg Δ8-THCV dose, Median (IQ Range)
[15] = plasma, 25 mg, 25 mg Δ8-THCV dose, Mean (SD, %CV)
[16] = plasma, 25 mg, 25 mg Δ8-THCV dose, Median (IQ Range)
[17] = plasma, 50 mg, 50 mg Δ8-THCV dose, Mean (SD, %CV)
[18] = plasma, 50 mg, 50 mg Δ8-THCV dose, Median (IQ Range)
[19] = plasma, 100 mg, 100 mg Δ8-THCV dose, Mean (SD, %CV)
[20] = plasma, 100 mg, 100 mg Δ8-THCV dose, Median (IQ Range)
[21] = plasma, 200 mg, 200 mg Δ8-THCV dose, Mean (SD, %CV)
[22] = plasma, 200 mg, 200 mg Δ8-THCV dose, Median (IQ Range)
[23] = plasma, 12.5 mg, 12.5 mg single oral Δ8-THCV in MCT oil, Mean (±SD)
[24] = plasma, 12.5 mg, 12.5 mg single oral Δ8-THCV in MCT oil, Median (Range)
[25] = plasma, 25 mg, 25 mg single oral Δ8-THCV in MCT oil, Mean (±SD)
[26] = plasma, 25 mg, 25 mg single oral Δ8-THCV in MCT oil, Median (Range)
[27] = plasma, 50 mg, 50 mg single oral Δ8-THCV in MCT oil, Mean (±SD)
[28] = plasma, 50 mg, 50 mg single oral Δ8-THCV in MCT oil, Median (Range)
[29] = plasma, 100 mg, 100 mg single oral Δ8-THCV in MCT oil, Mean (±SD)
[30] = plasma, 100 mg, 100 mg single oral Δ8-THCV in MCT oil, Median (Range)
[31] = plasma, 200 mg, 200 mg single oral Δ8-THCV in MCT oil, Mean (±SD)
[32] = plasma, 200 mg, 200 mg single oral Δ8-THCV in MCT oil, Median (Range)

## CCCc1cc(O)c2c(c1)OC(C)(C)[C@@H]1CC=C(C)C[C@@H]21 [Δ8-THCV, Δ8-tetrahydrocannabivarin]
[1]; [3]
  Clast (last quantifiable concentration): 0.9 (±0.3)
  tlast (time to last quantifiable concentration): 5.3 (±2.3)
[1]; [4]
  Clast (last quantifiable concentration): 0.7 (0.6–1.5)
  tlast (time to last quantifiable concentration): 5 (2–8)
[1]; [5]
  Clast (last quantifiable concentration): 1.1 (±0.4)
  tlast (time to last quantifiable concentration): 6.3 (±1.9)
[1]; [6]
  Clast (last quantifiable concentration): 1 (0.5–1.8)
  tlast (time to last quantifiable concentration): 7 (4–8)
[1]; [7]
  Clast (last quantifiable concentration): 2.3 (±1.5)
  tlast (time to last quantifiable concentration): 7.9 (±0.5)
[1]; [8]
  Clast (last quantifiable concentration): 2.2 (0.6–5.5)
  tlast (time to last quantifiable concentration): 8 (6–8)
[1]; [9]
  Clast (last quantifiable concentration): 4.1 (±3.1)
  tlast (time to last quantifiable concentration): 8 (±0)
[1]; [10]
  Clast (last quantifiable concentration): 3.1 (0.8–9.9)
  tlast (time to last quantifiable concentration): 8 (8–8)
[1]; [11]
  Clast (last quantifiable concentration): 21.2 (±23.2)
  tlast (time to last quantifiable concentration): 8 (±0)
[1]; [12]
  Clast (last quantifiable concentration): 13.4 (1.5–87.6)
  tlast (time to last quantifiable concentration): 8 (8–8)
[1]; 12.5 mg Δ8-THCV dose, Mean (SD, %CV)
  plasma concentration: 0 (±0, --) ng/mL
[1]; 12.5 mg Δ8-THCV dose, Median (IQ Range)
  plasma concentration: 0 (0–0) ng/mL
[1]; 25 mg Δ8-THCV dose, Mean (SD, %CV)
  plasma concentration: 0 (±0, --) ng/mL
[1]; 25 mg Δ8-THCV dose, Median (IQ Range)
  plasma concentration: 0 (0–0) ng/mL
[1]; 50 mg Δ8-THCV dose, Mean (SD, %CV)
  plasma concentration: 0 (±0, --) ng/mL
[1]; 50 mg Δ8-THCV dose, Median (IQ Range)
  plasma concentration: 0 (0–0) ng/mL
[1]; 100 mg Δ8-THCV dose, Mean (SD, %CV)
  plasma concentration: 0 (±0, --) ng/mL
[1]; 100 mg Δ8-THCV dose, Median (IQ Range)
  plasma concentration: 0 (0–0) ng/mL
[1]; 200 mg Δ8-THCV dose, Mean (SD, %CV)
  plasma concentration: 0 (±0, --) ng/mL
[1]; 200 mg Δ8-THCV dose, Median (IQ Range)
  plasma concentration: 0 (0–0) ng/mL
[1]; after the 200 mg dose, Δ8-THCV = 1
  median AUClast ratio Δ8-THCV-COOH/Δ8-THCV/11-OH-Δ8-THCV: 1
[1]; [13]
  concentration at 0.5 h: 0 ng/mL
  concentration at 1 h: 0.1 ng/mL
  concentration at 2 h: 0.4 ng/mL
  concentration at 4 h: 0.7 ng/mL
  concentration at 6 h: 0.5 ng/mL
  concentration at 8 h: 0.2 ng/mL
[1]; [14]
  concentration at 0.5 h: 0 ng/mL
  concentration at 1 h: 0 ng/mL
  concentration at 2 h: 0 ng/mL
  concentration at 4 h: 0.6 ng/mL
  concentration at 6 h: 0 ng/mL
  concentration at 8 h: 0 ng/mL
[1]; [15]
  concentration at 0.5 h: 0 ng/mL
  concentration at 1 h: 0.3 ng/mL
  concentration at 2 h: 1.4 ng/mL
  concentration at 4 h: 1.8 ng/mL
  concentration at 6 h: 0.9 ng/mL
  concentration at 8 h: 0.4 ng/mL
[1]; [16]
  concentration at 0.5 h: 0 ng/mL
  concentration at 1 h: 0 ng/mL
  concentration at 2 h: 0.3 ng/mL
  concentration at 4 h: 1.5 ng/mL
  concentration at 6 h: 0.7 ng/mL
  concentration at 8 h: 0.3 ng/mL
[1]; [17]
  concentration at 0.5 h: 0.1 ng/mL
  concentration at 1 h: 0.5 ng/mL
  concentration at 2 h: 2.6 ng/mL
  concentration at 4 h: 4.3 ng/mL
  concentration at 6 h: 6.1 ng/mL
  concentration at 8 h: 2.2 ng/mL
[1]; [18]
  concentration at 0.5 h: 0 ng/mL
  concentration at 1 h: 0 ng/mL
  concentration at 2 h: 0 ng/mL
  concentration at 4 h: 2.4 ng/mL
  concentration at 6 h: 2.8 ng/mL
  concentration at 8 h: 2.2 ng/mL
[1]; [19]
  concentration at 0.5 h: 0.2 ng/mL
  concentration at 1 h: 4.2 ng/mL
  concentration at 2 h: 7.1 ng/mL
  concentration at 4 h: 11.4 ng/mL
  concentration at 6 h: 12.3 ng/mL
  concentration at 8 h: 4.1 ng/mL
[1]; [20]
  concentration at 0.5 h: 0 ng/mL
  concentration at 1 h: 2.1 ng/mL
  concentration at 2 h: 5.5 ng/mL
  concentration at 4 h: 7.3 ng/mL
  concentration at 6 h: 7.7 ng/mL
  concentration at 8 h: 3.1 ng/mL
[1]; [21]
  concentration at 0.5 h: 0.1 ng/mL
  concentration at 1 h: 3.6 ng/mL
  concentration at 2 h: 21.4 ng/mL
  concentration at 4 h: 29.4 ng/mL
  concentration at 6 h: 26.6 ng/mL
  concentration at 8 h: 21.2 ng/mL
[1]; [22]
  concentration at 0.5 h: 0 ng/mL
  concentration at 1 h: 2 ng/mL
  concentration at 2 h: 14.3 ng/mL
  concentration at 4 h: 33.3 ng/mL
  concentration at 6 h: 21.8 ng/mL
  concentration at 8 h: 13.4 ng/mL
[1]; [23]
  AUC(0-t): 0.0035 µg·h/mL
  Cmax: 1.6 ng/mL
[1]; [24]
  AUC(0-t): 0.0021 µg·h/mL
  Cmax: 1.1 ng/mL
[1]; plasma, 12.5 mg, 12.5 mg single oral Δ8-THCV in MCT oil, plasma, Mean (±SD)
  MRT: 4 h
[1]; plasma, 12.5 mg, 12.5 mg single oral Δ8-THCV in MCT oil, plasma, Mean (±SD), read-out: tmax
  Tmax: 3.9 h
[1]; plasma, 12.5 mg, 12.5 mg single oral Δ8-THCV in MCT oil, plasma, Median (Range)
  MRT: 4 h
[1]; plasma, 12.5 mg, 12.5 mg single oral Δ8-THCV in MCT oil, plasma, Median (Range), read-out: tmax
  Tmax: 4 h
[1]; [25]
  AUC(0-t): 0.0074 µg·h/mL
  Cmax: 2.6 ng/mL
[1]; [26]
  AUC(0-t): 0.0052 µg·h/mL
  Cmax: 2.1 ng/mL
[1]; plasma, 25 mg, 25 mg single oral Δ8-THCV in MCT oil, plasma, Mean (±SD)
  MRT: 4.1 h
[1]; plasma, 25 mg, 25 mg single oral Δ8-THCV in MCT oil, plasma, Mean (±SD), read-out: tmax
  Tmax: 3.8 h
[1]; plasma, 25 mg, 25 mg single oral Δ8-THCV in MCT oil, plasma, Median (Range)
  MRT: 4.2 h
[1]; plasma, 25 mg, 25 mg single oral Δ8-THCV in MCT oil, plasma, Median (Range), read-out: tmax
  Tmax: 4 h
[1]; [27]
  AUC(0-t): 0.0273 µg·h/mL
  Cmax: 10 ng/mL
[1]; [28]
  AUC(0-t): 0.0249 µg·h/mL
  Cmax: 10 ng/mL
[1]; plasma, 50 mg, 50 mg single oral Δ8-THCV in MCT oil, plasma, Mean (±SD)
  MRT: 5.2 h
[1]; plasma, 50 mg, 50 mg single oral Δ8-THCV in MCT oil, plasma, Mean (±SD), read-out: tmax
  Tmax: 5 h
[1]; plasma, 50 mg, 50 mg single oral Δ8-THCV in MCT oil, plasma, Median (Range)
  MRT: 5.4 h
[1]; plasma, 50 mg, 50 mg single oral Δ8-THCV in MCT oil, plasma, Median (Range), read-out: tmax
  Tmax: 6 h
[1]; [29]
  AUC(0-t): 0.0655 µg·h/mL
  Cmax: 21.5 ng/mL
[1]; [30]
  AUC(0-t): 0.0584 µg·h/mL
  Cmax: 22 ng/mL
[1]; plasma, 100 mg, 100 mg single oral Δ8-THCV in MCT oil, plasma, Mean (±SD)
  MRT: 4.5 h
[1]; plasma, 100 mg, 100 mg single oral Δ8-THCV in MCT oil, plasma, Mean (±SD), read-out: tmax
  Tmax: 4.2 h
[1]; plasma, 100 mg, 100 mg single oral Δ8-THCV in MCT oil, plasma, Median (Range)
  MRT: 4.1 h
[1]; plasma, 100 mg, 100 mg single oral Δ8-THCV in MCT oil, plasma, Median (Range), read-out: tmax
  Tmax: 4 h
[1]; [31]
  AUC(0-t): 0.168 µg·h/mL
  Cmax: 52.9 ng/mL
[1]; [32]
  AUC(0-t): 0.165 µg·h/mL
  Cmax: 51.7 ng/mL
[1]; plasma, 200 mg, 200 mg single oral Δ8-THCV in MCT oil, plasma, Mean (±SD)
  MRT: 4.7 h
[1]; plasma, 200 mg, 200 mg single oral Δ8-THCV in MCT oil, plasma, Mean (±SD), read-out: tmax
  Tmax: 4.7 h
[1]; plasma, 200 mg, 200 mg single oral Δ8-THCV in MCT oil, plasma, Median (Range)
  MRT: 4.7 h
[1]; plasma, 200 mg, 200 mg single oral Δ8-THCV in MCT oil, plasma, Median (Range), read-out: tmax
  Tmax: 4 h
[1]; plasma, across oral Δ8-THCV doses 12.5-200 mg, plasma, read-out: median time-to-maximum concentration (tmax), range across doses
  Tmax: 3.8 to 5 h
[1]; of 504 plasma samples from 15 participants after oral Δ8-THCV
  number of positive plasma samples: 236
[1]; one subject after oral Δ8-THCV in MCT oil, Figure A1
  concentration in representative plasma sample: 69.8 ng/mL
[1]; oral Δ8-THCV 12.5-200 mg, plasma
  increase of median AUClast every two-fold increase in the dose: 2.3- to 4.8 fold
[1]; oral Δ8-THCV, plasma
  tmax later after doses greater than 50 mg compared to the 12.5 mg and 25 mg doses: 1.3 fold
[2]
  CB2 receptor activation: activate CB2 receptors
